No end group written: not given here.
T1: human TAS1R2-R838K/TAS1R3-WT (Homo sapiens, UniProt Q7RTX0+Q8TE23, R838K)
T1 construct: expressed in transfected cells; host or cells: HEK293T-Gα16gust44
T1 sequence (Q8TE23 20-839 R838K): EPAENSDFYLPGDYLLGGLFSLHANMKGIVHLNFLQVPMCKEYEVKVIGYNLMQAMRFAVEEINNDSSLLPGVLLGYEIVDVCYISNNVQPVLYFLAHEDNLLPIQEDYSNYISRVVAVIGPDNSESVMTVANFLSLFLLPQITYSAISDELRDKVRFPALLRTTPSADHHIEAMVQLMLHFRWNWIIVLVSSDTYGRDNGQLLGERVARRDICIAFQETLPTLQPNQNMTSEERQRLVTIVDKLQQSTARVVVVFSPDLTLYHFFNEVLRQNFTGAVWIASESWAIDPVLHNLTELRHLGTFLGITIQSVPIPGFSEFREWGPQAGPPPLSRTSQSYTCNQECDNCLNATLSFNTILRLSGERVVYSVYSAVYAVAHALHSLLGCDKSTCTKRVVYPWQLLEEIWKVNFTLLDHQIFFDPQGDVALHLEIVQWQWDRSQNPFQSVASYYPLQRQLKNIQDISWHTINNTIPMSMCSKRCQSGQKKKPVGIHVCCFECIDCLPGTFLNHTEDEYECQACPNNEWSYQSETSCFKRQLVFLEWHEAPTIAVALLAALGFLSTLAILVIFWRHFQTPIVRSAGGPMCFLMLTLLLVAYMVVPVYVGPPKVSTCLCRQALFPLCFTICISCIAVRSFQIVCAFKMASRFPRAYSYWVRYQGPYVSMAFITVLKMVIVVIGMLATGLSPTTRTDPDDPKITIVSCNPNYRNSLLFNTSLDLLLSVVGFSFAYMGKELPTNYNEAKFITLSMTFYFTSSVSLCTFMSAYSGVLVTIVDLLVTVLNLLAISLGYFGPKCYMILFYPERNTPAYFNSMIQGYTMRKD
T1 sequence (Q7RTX0 21-852): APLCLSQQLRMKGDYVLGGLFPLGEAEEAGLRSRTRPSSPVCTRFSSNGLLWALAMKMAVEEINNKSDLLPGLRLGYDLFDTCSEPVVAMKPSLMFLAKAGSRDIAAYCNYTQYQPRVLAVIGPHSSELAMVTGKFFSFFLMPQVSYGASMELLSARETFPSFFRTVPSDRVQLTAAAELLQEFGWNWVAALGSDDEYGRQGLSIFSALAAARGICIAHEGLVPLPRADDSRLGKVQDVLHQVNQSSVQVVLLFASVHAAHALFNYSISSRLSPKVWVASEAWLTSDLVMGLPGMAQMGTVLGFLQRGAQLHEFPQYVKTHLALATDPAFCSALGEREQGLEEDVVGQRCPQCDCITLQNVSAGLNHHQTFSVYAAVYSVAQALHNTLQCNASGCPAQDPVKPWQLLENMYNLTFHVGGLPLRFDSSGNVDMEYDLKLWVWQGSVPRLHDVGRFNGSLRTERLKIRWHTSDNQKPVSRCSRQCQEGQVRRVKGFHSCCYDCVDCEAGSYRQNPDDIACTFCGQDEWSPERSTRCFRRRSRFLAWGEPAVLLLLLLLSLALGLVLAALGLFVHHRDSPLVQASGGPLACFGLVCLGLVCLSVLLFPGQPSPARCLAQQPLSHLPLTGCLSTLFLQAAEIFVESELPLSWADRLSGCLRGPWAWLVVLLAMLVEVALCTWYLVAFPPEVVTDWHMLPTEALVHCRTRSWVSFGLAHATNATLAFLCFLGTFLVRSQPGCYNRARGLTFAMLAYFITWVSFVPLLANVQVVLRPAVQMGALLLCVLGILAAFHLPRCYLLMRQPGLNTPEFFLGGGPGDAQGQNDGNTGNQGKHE

B1: thaumatin (protein)
chain: ATFEIVNRCSYTVWAAASKGDAALDAGGRQLNSGESWTINVEPGTKGGKIWARTDCYFDDSGSGICKTGDCGGLLRCKRFGRPPTTLAEFSLNQYGKDYIDISNIKGFNVPMDFSPTTRGCRGVRCAADIVGQCPAKLKAPGGGCNDACTVFQTSEYCCTTGKCGPTEYSRFFKRLCPDAFSYVLDKPTTVTCPGSSNYRVTFCPTA
modifications: Eight disulfides
notes: sweet-tasting plant protein, E957

Target: T1, human TAS1R2-R838K/TAS1R3-WT
Experiment: Calcium mobilisation assay, TAS1R2 variant R838K with TAS1R3-WT
Assay type: cell-based
Conditions: for Max ΔF/F0: maximal signal amplitude
From the text: The coding sequences for TAS1R2 and TAS1R3 were commercially synthesised, and the human codon was optimised for expression in human cells. The coding sequences of human TAS1R2 and TAS1R3 were subcloned and inserted into the mammalian expression vectors pcDNA6/myc-HisA and pcDNA4/myc-HisA (Invitrogen; Thermo Fisher Scientific; Illkirch, France) between the EcoRI and NotI restriction sites, generating the plasmids pcDNA6-TAS1R2 and pcDNA4-TAS1R3, respectively. To increase protein expression in mammalian cells, an upstream start codon was used, which was a sequence called MAX, corresponding to the QBI SP163 element also described in pcDNA4-HisMax (Invitrogen; Thermo Fisher Scientific; Illkirch, France). To measure the expression level of the receptor by immunohistochemistry, we used the FLAG sequence ([…]) in the C-terminal position, which encodes the FLAG tag epitope. SNP variants of TAS1R2 and TAS1R3 were constructed based on […], respectively, using site-directed mutagenesis (Genewiz; Leipzig, Germany).
The HEK293T cells were kindly provided by Jay P. Slack (Givaudan Flavors Corporation; Cincinnati, OH, USA). HEK293T cells stably transfected with Gα16gust44 [43, 67] were seeded in poly-D-lysine-coated clear-bottom black 96-well plates (0.35 × 10^5 cells/well) in high-glucose DMEM supplemented with 2 mM GlutaMAX, 10% dialysed foetal bovine serum with penicillin/streptomycin and G418 (400 μg/mL) at 37 °C and 6.3% CO2 in a humidified atmosphere as previously reported. […] As a negative control, HEK293T cells were mock-transfected with the empty expression vector. After a further 24 h of incubation, the HEK293T cells were washed with C1 buffer (130 mM NaCl, 5 mM KCl, 10 mM HEPES pH 7.4 and 2 mM CaCl2). The 96-well plates containing the cells were then stimulated with sweet-tasting compounds. […] Different concentration ranges were tested depending on the sweet compound injected. The Ca^2+ changes were expressed as fractional changes in fluorescent light intensity: ΔF/F = (F − F0)/F0, where F was the fluorescent light intensity at each point, and F0 was the value of emitted fluorescent light prior to stimulus application. To calculate dose–response relationships, the changes in fluorescence upon stimulus application were averaged, mock-subtracted and baseline-corrected. The dose–response data obtained were adjusted using a 4-parameter logistic equation. The half-maximal effective concentrations (EC50 values) and maximal signal amplitudes were calculated using SigmaPlot software (version 15.0) (Systat Software; San Jose, CA, USA).
For in vitro calcium mobilisation assay performed on hTAS1R2-SNPs, hTAS1R3-SNPs and mTAS1R3-I60T, 6 to 7 concentrations were tested for each sweet compound, plus buffer alone. All concentration–receptor combinations were measured in duplicate, and each experiment was repeated at least 4 times (8 wells/concentration). Results were expressed for each concentration as ΔF/F mean ± SEM and represented as dose–response curves.

Molecule | EC50 [µM] | R1 = Variant EC50/WT EC50 | Max ΔF/F0
OC[C@H]1O[C@H](O[C@]2(CCl)O[C@H](CCl)[C@@H](O)[C@@H]2O)[C@H](O)[C@@H](O)[C@H]1Cl [Sucralose] | 82 ± 6 | 0.9 | 0.75 ± 0.02
O=S(=O)(O)NC1CCCCC1 [Cyclamate, cyclamate] | 1730 ± 24 | – | –
C=C(C)[C@@H]1CC=C(/C=N/O)CC1 [Perillartine, perillartine] | 19.1 ± 1.2 | 1.1 | 1.45 ± 0.03
C=C1C[C@@]23CC[C@H]4[C@@](C)(CCC[C@@]4(C)C(=O)O[C@@H]4O[C@H](CO)[C@@H](O)[C@H](O[C@@H]5O[C@H](CO)[C@@H](O)[C@H](O)[C@H]5O)[C@H]4O[C@@H]4O[C@H](CO)[C@@H](O)[C@H](O)[C@H]4O)[C@@H]2CC[C@]1(O[C@@H]1O[C@H](CO)[C@@H](O)[C@H](O[C@@H]2O[C@H](CO)[C@@H](O)[C@H](O)[C@H]2O)[C@H]1O[C@@H]1O[C@H](CO)[C@@H](O)[C@H](O)[C@H]1O)C3 [Rebaudioside M, rebaudioside M] | 18.2 ± 1.1 | 1.1 | 1.20 ± 0.01
COc1ccc(CCC(=O)c2c(O)cc(O[C@@H]3O[C@H](CO)[C@@H](O)[C@H](O)[C@H]3O[C@@H]3O[C@@H](C)[C@H](O)[C@@H](O)[C@H]3O)cc2O)cc1O [NHDC, neohesperidin dihydrochalcone] | 75.8 ± 1.2 | 1.0 | 0.79 ± 0.05
thaumatin | – | 1.4 | 1.3 ± 0.02
CC1=CC(=O)NS(=O)(=O)O1 [Acesulfame K, acesulfame K] | 484 ± 47 | 0.7 | 0.42 ± 0.02
brazzein (QDKCKKVYENYPVSKCQLANQCNYDCKLDKHARSGECFYDEKRNLQCICDYCEY; ends and bridges not checked; cysteine pairing not given here; UniProt P56552 1-54, looked up) [sweet-tasting protein obtained by recombinant production using the yeast Pichia pastoris] | – | 1.2 | 1.2 ± 0.03
C[C@H](CC[C@@H](O[C@@H]1O[C@H](CO[C@@H]2O[C@H](CO)[C@@H](O)[C@H](O)[C@H]2O)[C@@H](O)[C@H](O)[C@H]1O[C@@H]1O[C@H](CO)[C@@H](O)[C@H](O)[C@H]1O)C(C)(C)O)[C@H]1CC[C@@]2(C)[C@@H]3CC=C4[C@@H](CC[C@H](O[C@@H]5O[C@H](CO[C@@H]6O[C@H](CO)[C@@H](O)[C@H](O)[C@H]6O)[C@@H](O)[C@H](O)[C@H]5O)C4(C)C)[C@]3(C)[C@H](O)C[C@]12C [Mogroside V, mogroside V] | 17.1 ± 0.9 | 1.0 | 1.31 ± 0.02
COC(=O)[C@H](Cc1ccccc1)NC(=O)[C@H](CC(=O)O)NCCC(C)(C)C [Neotame] | 0.66 ± 0.05 | 0.8 | 0.75 ± 0.02
B1 | 10.4 ± 0.2 | – | –

From PMC11945486, “TAS1R2/TAS1R3 Single-Nucleotide Polymorphisms Affect Sweet Taste Receptor Activation by Sweeteners: The SWEET Project” (Nutrients, 2025)
